Data as given in patent publication EP1101496A1, “THERAPEUTIC AGENTS FOR ALLERGIC DISEASES” (FUJI YAKUHIN KOGYO KABUSHIKI KAISHA, priority 1998, dated 2000).

How the values were obtained:
[1] = Mouse body weight gain (side-effect index); assay type: in vivo, mice; conditions: average ± standard deviation; once a day Days 0-5; Compound No. 8 or 10 60 mg/kg s.c., prednisolone 10 mg/kg i.p.
Experimental: Next the mice were measured for their body weight.

[2] = tested on: IgE-mediated auricle edema; experiment: Auricle edema in experimental atopic dermatitis model (anti-DNP IgE sensitization, DNFB elicitation); assay type: in vivo, Balb/c mice; conditions: Compound Nos. 8 and 10 60 mg/kg s.c., prednisolone 10 mg/kg i.p.
Experimental: Intravenous injection of an anti-2,4-dinitrophenol (DNP) antibody (anti-DNP Ab, monoclonal IgE Ab; its antibody titer was 1 : 512 to 1 : 1024 by a rat heterologous passive cutaneous anaphylaxis reaction using a Wister rat) into a tail vein of female Balb/c mice (7-week old, body weight: 17 to 20 g, purchased from JAPAN SLC, Inc.) at a dose of […] per animal raised passive sensitization. Twenty four hours post-sensitization, 0.1% 2,4-dinitrofluorobenzene (DNFB; Nacalai Tesque, Inc.) in ethanol was painted onto both sides of a pair of mouse auricles at a dose of 10 µL per each side for elicitation.
Fresh unsensitized mice were painted with 0.1% DNFB in ethanol onto their ear in the same manner as aforementioned and served as a control group. Not only immediately prior to elicitation but also 1 hour, 5 hours, daily between Days 1 and 14, and on Day 16 post-elicitation, ear thickness was measured using a dial thickness gauge (Peacock Co.). Each degree of auricle edemas was calculated: Auricular Edema (µm)=(Ear Thickness Post-Elicitation, µm) - (Ear Thickness immediately prior to Elicitation, µm) [formula]
Balb/c mice were passively sensitized with anti-DNP IgE Ab in the same manner as in Example 1. Twenty four hours later, 0.1% DNFB in ethanol was painted onto both sides of a pair of mouse auricles at a dose of 10 µL per each side for elicitation.
Immediately prior to elicitation, 1 hour and on Day 1 post-elicitation, auricle thickness was measured in the same manner as in Example 1. Each therapeutic efficacy is recorded as a percent inhibition wherein the "auricle edema (untreated group)" is used as a control. Auricle Edema Inhibition (%) = [ 1 -(Auricle Edema (Treated Group))/(Auricle Edema (Untreated Group))] × 100 (%) [formula]
(§1) Mice were sensitized with anti-DNP IgE Ab and then elicited by painting 0.1% DNFB in ethanol onto both sides of a pair of mouse auricles at a dose of 10 µL per each side 24 hours post-sensitization in the same manner as in Example 1. […] Immediately prior to elicitation, and on Day 7 post-elicitation, auricle thickness was similarly measured. Each therapeutic efficacy is recorded as a percent inhibition wherein the auricle edema in the untreated group is used as a control.
as §1, with “(untreated group)” for “in the untreated group”
Mice were sensitized with anti-DNP IgE Ab and then elicited by painting 0.1% DNFB in ethanol onto both sides of a pair of mouse auricles at a dose of 10 µL per each side 24 hours post-sensitization in the same manner as in Example 1. […] Immediately prior to elicitation, at 1 and 4 hours and on Days 1, 3 and 7 post-elicitation, auricle thickness was similarly measured. From each auricle edema (µm) based on the auricle thickness immediately prior to elicitation, especially a prophylactically therapeutic efficacy of the test compound was evaluated.
Mice were sensitized with anti-DNP IgE Ab and then elicited by painting 0.1% DNFB in ethanol onto both sides of a pair of mouse auricles at a dose of 10 µL per each side 24 hours post-sensitization in the same manner as in Example 1. A solution of a test metalloproteinase inhibitor (Compound No. 8; 50 µg/ear/dose, twice a day) in ethanol was painted onto both sides of a pair of the mouse auricles 1 hour pre-elicitation, 0.25, 3, 4, 5 and 6 days post-elicitation (5 animals per group). Immediately prior to elicitation, at 0.5, 1 and 4 hours and on Days 1, 3 and 7 post-elicitation, auricle thickness was similarly measured. Each amount of auricle edemas was calculated (average± standard deviation). […]

[3] = tested on: Experimental Bronchial Asthma Model; experiment: Experimental bronchial asthma model (ovalbumin-sensitized, airway resistance and asthmatic death); assay type: in vivo, Guinea pigs; conditions: for % Survival: asthmatic death within several minutes after elicitation
Experimental: Guinea pigs (female, Std:Hartley, 3 weeks old, 200 to 250 g) were individually housed in a plastic chamber (width, 200 mm; depth, 300 mm; height, 167 mm). Aqueous ovalbumin (10 mg/mL) was administered to the guinea pigs once a day for sensitization by 10 min. inhalation with a nebulizer (5B, Nippon Shoji K.K.: flow rate, 6 L/min.) at a dose of 10 mg/mL during 8 cosecutive days. On Day 7 after the final sensitization, the guinea pigs were housed in a plastic chamber and inhaled using a nebulizer with a solution of ovalbumin (10 mg/mL) in physiological saline for 1 min. for elicitation (Matsumoto, T., et al., The Journal of Pharmacology and Experimental Therapeutics, 269: 1236-1244, 1994). The number of animals employed in the experiment was set to the extent there are at least 6 as individuals escaping asthmatic death. A solution of a test metalloproteinase inhibitor (Compound No. 8, 15 mg/kg) in water for injection was administered subcutaneously twice, i.e., 24 hours and 2 hours prior to elicitation. Similarly, the solvent alone was also administered to a negative control group. A suspension of prednisolone (10 mg/kg) in 0.5% aqueous methyl cellulose was administered orally twice, i.e., 24 hours and 2 hours prior to elicitation. Similarly, the solvent alone was also administered to another control group.
The evaluation for efficacies was conducted in terms of airway resistance. For this purpose, an apparatus dedicated to the measurement of airway resistance (K.K. Medical Agent) was employed. Measurement includes setting a guinea pig in a test chamber under a not-anesthetized condition, applying sinusoidal pressure waves of 30 Hz components to a part below the neck of the animal from the back side of the chamber, measuring respiratory waves of 30 Hz components leaking through the mouth (volume of 30 Hz air flow passing through the respiratory tract) in front of the neck, and calculating airway resistance mechanically. Measurement was carried out immediately prior to the first drug treatment (24 hours before elicitation), just prior to elicitation, 10 minutes, 1, 2, 4, 6, and 8 hours post-elicitation.
It was visually observed by a person carrying out said test in terms of the appearance of cyanosis or suffocative death (asthmatic death) due to respiratory obstruction.
Guinea pigs were sensitized with ovalbumin and asthma was induced on Day 7 after final sensitization in the same manner as in Example 18. The number of animals employed in the experiment was set to the extent there are at least 6 as individuals escaping asthmatic death (8 to 11 animals/group). In the same manner as in Example 18, the animals were measured for airway resistance mechanically and each percent change (%) in airway resistance was calculated (each value just prior to elicitation was set as 100%). Each percent amelioration in airway resistance was calculated from the percent changes in airway resistance according to the following formula: Amelioration in Airway Resistance (%) = 1 -[((Percent Change in Airway Resistance after Drug-Administration)-(Value just prior to Challenge (100)))/((Percent Change in Airway Resistance after Solvent -Administration)-(Value just prior to Challenge (100)))]× 100 [formula]
A solution of a test metalloproteinase inhibitor (Compound No. 22: 15 mg/kg or 30 mg/kg) in water for injection or the solvent alone as a negative control was administered to each animal subcutaneously twice, i.e., 24 hours and 2 hours prior to elicitation.

[4] = Body weight gain in sensitized mice (experimental atopic dermatitis model); assay type: in vivo; conditions: painted on auricles twice a day; Compound No. 8 50 µg/ear/dose, prednisolone 5 µg/ear/dose; Days 1, 4 and 7; versus solvent control (ethanol)
Experimental: Experimental atopic dermatitis model mice sensitized in the same manner as in Example 1 were examined for influence on body weight gains.
A solution of a test metalloproteinase inhibitor (Compound No. 8; 50 µg/ear/dose, twice a day) in ethanol or a solution of prednisolone (5 µg/ear/dose, twice a day) in ethanol was administered to mice (5 animals per group) by painting onto both sides of a pair of the auricles, not only one hour prior to elicitation but also 0.25, 3, 4, 5 and 6 days post-elicitation. Each mouse was measured for its body weight not only immediately before the start in painting but also on Days 1, 4 and 7 after the start in painting. Each gain in body weight was calculated and considered to indicate an effect on body weight changes affected by said treatments.

[5] = Compound No. 22 15 mg/kg s.c., prednisolone 10 mg/kg orally
[6] = suffocative death due to cyanosis just after elicitation, Compound No. 8 15 mg/kg s.c., prednisolone 10 mg/kg orally, 24 and 2 hours prior to elicitation

| Compound | Body Weight Gain, Day 5 [1] | Body Weight Gain, Day 7 [1] | Body Weight Gain, Day 10 [1] | % Inhibition IPR ([2]; auricle edema 1 hour post-elicitation, treatment 24 & 2 hours prior to DNFB-elicitation) | % Inhibition LPR ([2]; auricle edema Day 1 post-elicitation, treatment 24 & 2 hours prior to DNFB-elicitation) | % Inhibition vLPR ([2]; auricle edema Day 7 post-elicitation, daily from 3 to 6 days after DNFB-elicitation) | % Amelioration in Airway Resistance, 1 Hour ([3]; 1 hour after elicitation, Compound No. 22 15 mg/kg s.c., prednisolone 10 mg/kg orally) | % Amelioration in Airway Resistance, 6 Hours ([3]; 6 hours after elicitation, Compound No. 22 15 mg/kg s.c., prednisolone 10 mg/kg orally) | % Amelioration in Airway Resistance, Immediately after Elicitation ([3]; Compound No. 22 15 mg/kg s.c., prednisolone 10 mg/kg orally, 24 and 2 hours prior to elicitation) | cyanosis ([3]; after elicitation, s.c. administration) | % Survival [3, 5] | gain in body weight (FIG. 9) [4] | % Mortality [3, 6] | (Dead Animals)/(Tested Animals) [3, 6] |
| --- | --- | --- | --- | --- | --- | --- | --- | --- | --- | --- | --- | --- | --- | --- |
| CC(=O)O.CNC(=O)[C@H](Cc1ccc(CNC(C)=N)cc1)NC(=O)[C@H](CC(C)C)C(CCCc1ccccc1)C(=O)NO (single isomer, unassigned) [Compound No. 10, N-[4-(N-hydroxyamino)-2(R)-isobutyl-3(R or S)-(3-phenyltrimethylene)succinyl]-L-4'-acetimidoyliminomethylenephenylalanine-N-methylamide 1 acetate] | 1.08± 0.39 | 1.62± 0.26 | 1.40± 0.30 | 38.2% | 39.2% | 44.7% |  |  |  |  |  |  |  |  |
| CC(=O)O.CNC(=O)[C@H](Cc1ccc(NC(=N)N)cc1)NC(=O)[C@@H](CC(=O)NO)CC(C)C [Compound No. 22, N-[4-(N-hydroxyamino)-2(R)-isobutylsuccinyl]-L-4'-guanidophenylalanine-N-methylamide 1 acetate] |  |  |  |  |  |  | 56.4% | 102.2% | 12.3% | moderation in cyanosis is also observed | 88.9% |  |  |  |
| C[C@]12C=CC(=O)C=C1CC[C@@H]1[C@@H]2[C@@H](O)C[C@@]2(C)[C@H]1CC[C@]2(O)C(=O)CO [Prednisolone, prednisolone, reference compound] | 0.00± 0.26 | 0.03± 0.57 | 0.97± 0.47 |  |  |  |  |  |  |  | 75.0% | below that in the solvent control group | 22.2% | 2/9 |
